Among the test systems are MOLT-4; DMS-114; LXFL 529; A498; DLD-1; SR; OVCAR-5; CCRF-CEM; M19-MEL; HOP-18; Malme-3M; 786-0; HOP-92; OVCAR-3; NCI/ADR-RES; MCF7; MDA-MB-435; MDA-N; DU-145; MDA-MB-231.
What all share (experiment): NCI anticancer screen, dose series, 48 h

The results in this text go back to ChEMBL document CHEMBL1201862, “PubChem BioAssay data set” (2004).

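Results reflect a 48-hour exposure of cells in 96-well plates to compound at five concentrations. Abbreviation: GI50, concentration required for 50% inhibition of growth.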 Calls of active or inactive are those of the source. Rule as the data show it: active = GI50 up to about 1.1 µM and inactive = higher. A value given as a limit tells only on which side of the number the result lay.

For the compound `O=[N+]([O-])c1ccc(C2=Nc3ccccc3SC(c3ccccc3)C2)cc1` (stereo not drawn), the GI50 in the assay on MOLT-4 was 15.1 µM (inactive); with DMS-114, 18.2 µM (inactive); in the assay with LXFL 529, 17.8 µM (inactive); in the assay with A498 it was 22.3 µM (inactive); with DLD-1 it was 18.9 µM (inactive); in the assay on SR, 18.2 µM (inactive). Also, the figures for the GI50 with OVCAR-5, in the assay with CCRF-CEM and with M19-MEL were 19.5 µM (inactive), 14.7 µM (inactive) and 15.4 µM (inactive), respectively.
With `CNc1ccccc1-c1nc2ccccc2c(=O)o1`, the GI50 in the assay with MOLT-4, with DMS-114, in the assay on LXFL 529, in the assay on HOP-18, in the assay with DLD-1 and in the assay with SR was > 100 µM (inactive) throughout. Also, the GI50 in the assay with Malme-3M, in the assay on OVCAR-5, with CCRF-CEM and in the assay with M19-MEL was > 100 µM (inactive) throughout.
With `O=CCCn1[nH]c(=O)ccc1=O`, the GI50 in the assay on MOLT-4, with 786-0, with DMS-114, with A498, in the assay on DLD-1 and with HOP-92 was > 100 µM (inactive) in each case. Further, the GI50 with SR, in the assay with Malme-3M, with OVCAR-3, with OVCAR-5, with CCRF-CEM and in the assay on M19-MEL was > 100 µM (inactive) throughout.
For the compound `O=c1[nH]c(-c2ccccc2)nc2cc([N+](=O)[O-])c(/C(Cl)=C/c3ccccc3)cc12`, the GI50 in the assay on MOLT-4 is 50.8 µM (inactive); in the assay with 786-0, 35 µM (inactive); with DMS-114, 35.7 µM (inactive); in the assay on LXFL 529, 16.4 µM (inactive); in the assay on HOP-92 it was 11.8 µM (inactive); with SR, 31.1 µM (inactive). Besides, the GI50 with Malme-3M was 24.3 µM (inactive); in the assay on OVCAR-3, 30 µM (inactive); in the assay on OVCAR-5, > 100 µM (inactive); in the assay with M19-MEL, 37.8 µM (inactive).
As for `N[C@@H](CSCSC[C@H](N)C(=O)O)C(=O)O`, the GI50 was 195 µM (inactive) in the assay on MOLT-4; > 225 µM (inactive) with DMS-114; > 225 µM (inactive) in the assay on HOP-18; > 104 µM (inactive) with NCI/ADR-RES; > 225 µM (inactive) in the assay with A498; > 225 µM (inactive) in the assay with DLD-1. The GI50 is > 169 µM (inactive) with HOP-92; > 225 µM (inactive) in the assay with Malme-3M; > 225 µM (inactive) with OVCAR-3; > 225 µM (inactive) in the assay on MCF7; > 225 µM (inactive) in the assay with OVCAR-5; 89.5 µM (inactive) in the assay with CCRF-CEM. The GI50 with M19-MEL is > 225 µM (inactive).
In the case of `CCOC(=O)/C=C1/Oc2ccccc2C1(C)O` (stereo not drawn), the GI50 in the assay on MOLT-4, in the assay on 786-0, with DMS-114, in the assay on LXFL 529, in the assay on HOP-18 and with A498 was > 100 µM (inactive) throughout. Further, the GI50 in the assay with DLD-1, in the assay with HOP-92, in the assay with Malme-3M, with OVCAR-3, with OVCAR-5 and with CCRF-CEM was > 100 µM (inactive) each time. Further, the GI50 in the assay with M19-MEL is > 100 µM (inactive).
For `COC(=O)c1ccc(/C=C2\N=C(C)OC2=O)cc1`, the GI50 with MOLT-4, in the assay on DMS-114, in the assay on LXFL 529, with HOP-18, with A498 and with DLD-1 was > 100 µM (inactive) each time. Moreover, the GI50 with HOP-92, in the assay with OVCAR-3, in the assay with OVCAR-5, in the assay on CCRF-CEM and in the assay with M19-MEL was > 100 µM (inactive) throughout.
Regarding `COc1ccc(/C(Cl)=C(\C=O)c2ccc(OC)cc2)cc1`, the GI50 with MOLT-4 was 7 µM (inactive); in the assay on DMS-114, > 100 µM (inactive); with LXFL 529, > 100 µM (inactive); in the assay with HOP-18, 63.8 µM (inactive); with A498 it was > 100 µM (inactive); with DLD-1 it was 33.2 µM (inactive). Also, the GI50 was 10.8 µM (inactive) with SR; > 100 µM (inactive) with Malme-3M; 64.9 µM (inactive) in the assay on OVCAR-3; > 100 µM (inactive) in the assay with OVCAR-5; 22.2 µM (inactive) in the assay with CCRF-CEM; 93.3 µM (inactive) in the assay with M19-MEL.
In the case of `COC(=O)/C=C(\C)CCC1SC1(C)C` (stereo not drawn), the GI50 is > 100 µM (inactive) in the assay with MOLT-4; > 100 µM (inactive) with 786-0; 91.8 µM (inactive) in the assay with DMS-114; > 100 µM (inactive) in the assay with LXFL 529; > 100 µM (inactive) with HOP-18; > 100 µM (inactive) with A498. Moreover, the GI50 in the assay with DLD-1, with Malme-3M, in the assay on OVCAR-5, with CCRF-CEM and with M19-MEL was > 100 µM (inactive) throughout.
Regarding `CN(C)C(=O)C1CCC(=C2C(=O)OC(C)(C)OC2=O)N1C` (stereo not drawn), the GI50 with MOLT-4, in the assay with 786-0, with DMS-114, in the assay on LXFL 529, in the assay with HOP-18 and with A498 was > 100 µM (inactive) in each case. The GI50 in the assay on DLD-1, with HOP-92, in the assay with Malme-3M, with OVCAR-3, in the assay on OVCAR-5 and with CCRF-CEM was > 100 µM (inactive) in each case. The GI50 in the assay on M19-MEL is > 100 µM (inactive).
As for `COC(=O)[C@@H](NC(=O)[C@H](N)Cc1ccc(N(CCCl)CCCl)cc1)C(C)C`, the GI50 in the assay with MOLT-4 is 0.0204 µM (active); in the assay on 786-0, 8.65 µM (inactive); in the assay on MDA-MB-435, 19 µM (inactive); in the assay on MDA-N, 23.3 µM (inactive); in the assay on NCI/ADR-RES, 12.6 µM (inactive); in the assay with A498 it was 18.7 µM (inactive). The GI50 was 1.63 µM (inactive) with HOP-92; 0.53 µM (active) in the assay on SR; 1.92 µM (inactive) with Malme-3M; 6.38 µM (inactive) with OVCAR-3; 12.5 µM (inactive) in the assay on MCF7; 36.5 µM (inactive) in the assay with OVCAR-5. The GI50 is 8.57 µM (inactive) in the assay on DU-145, 26.1 µM (inactive) with MDA-MB-231 and 0.435 µM (active) in the assay with CCRF-CEM.
In the case of `O=C(Nc1ccccc1Br)c1cccc([N+](=O)[O-])c1O`, the GI50 in the assay with MOLT-4 is 2.26 µM (inactive); in the assay on 786-0 it was 3.99 µM (inactive); in the assay with DMS-114, 3.18 µM (inactive); in the assay on LXFL 529 it was 3.15 µM (inactive); with HOP-18, 1.66 µM (inactive); with A498, 2.49 µM (inactive). In addition, the GI50 in the assay on DLD-1 is 4.32 µM (inactive); with HOP-92, 1.63 µM (inactive); in the assay with SR, 4.51 µM (inactive); with Malme-3M, 2.48 µM (inactive); in the assay with OVCAR-3, 2.07 µM (inactive); in the assay with OVCAR-5, 5.13 µM (inactive). The GI50 with CCRF-CEM was 2.78 µM (inactive); in the assay on M19-MEL, 2.51 µM (inactive).
`Nc1n[nH]c(CCCCCCCc2nnc(N)[nH]2)n1`: the GI50 in the assay with MOLT-4, in the assay with DMS-114, with LXFL 529, in the assay on A498, in the assay with DLD-1 and in the assay on SR was > 100 µM (inactive) throughout. Further, the GI50 with Malme-3M, in the assay with OVCAR-3, in the assay on OVCAR-5, with CCRF-CEM and in the assay with M19-MEL was > 100 µM (inactive) in each case.
As for `CC1OC(O)CC(OC(=O)c2ccccc2)C1OC(=O)c1ccccc1` (stereo not drawn), the GI50 is 13.9 µM (inactive) in the assay with MOLT-4; 29.4 µM (inactive) in the assay on 786-0; 16.2 µM (inactive) with LXFL 529; 26.3 µM (inactive) in the assay on HOP-18; > 100 µM (inactive) in the assay with A498; 14.3 µM (inactive) in the assay on DLD-1. Further, the GI50 is 20 µM (inactive) with HOP-92; 13.2 µM (inactive) with SR; 16.6 µM (inactive) with Malme-3M; 19.1 µM (inactive) in the assay with OVCAR-3; > 100 µM (inactive) in the assay on OVCAR-5; 10.3 µM (inactive) in the assay with CCRF-CEM. In the assay with M19-MEL, the GI50 is 17.5 µM (inactive).
As to `CC(C)=CC(=O)OC1C2C(C)=CC(O)C(O)C2(C)C2C3(O)OCC24C(CC(=O)OC14)C(C)C3O` (stereo not drawn), the GI50 in the assay on MOLT-4 is 0.0225 µM (active); in the assay with DMS-114, 0.0162 µM (active); in the assay on HOP-18, 1.11 µM (active); with NCI/ADR-RES, 17.5 µM (inactive); in the assay on A498, 1.51 µM (inactive); in the assay on DLD-1, 0.0716 µM (active). The GI50 with HOP-92 is 0.0552 µM (active); in the assay on Malme-3M, 0.0286 µM (active); in the assay with OVCAR-3, 0.0339 µM (active); in the assay with MCF7, 0.0269 µM (active); with OVCAR-5 it was 0.802 µM (active); in the assay with CCRF-CEM, 0.0462 µM (active). The GI50 in the assay on M19-MEL is 0.034 µM (active).
In the case of `Nc1cc(S(=O)(=O)O)cc2cc(S(=O)(=O)O)c(/N=N/c3ccc(-c4ccc(/N=N/c5c(S(=O)(=O)O)cc6cc(S(=O)(=O)O)cc(N)c6c5O)cc4)cc3)c(O)c12`, the GI50 with MOLT-4, in the assay with DMS-114, in the assay with HOP-18, in the assay on NCI/ADR-RES, in the assay with A498 and in the assay with DLD-1 was > 100 µM (inactive) in each case. Also, the GI50 in the assay on HOP-92 was > 71.9 µM (inactive); with Malme-3M it was > 100 µM (inactive); with OVCAR-3 it was > 100 µM (inactive); in the assay with MCF7 it was > 100 µM (inactive); in the assay on OVCAR-5 it was > 100 µM (inactive); in the assay with CCRF-CEM, > 100 µM (inactive). Further, in the assay with M19-MEL, the GI50 was > 100 µM (inactive).
